# Data as given in patent US4522815A, “Anthracycline glycosides” (priority 1982, dated 1985).
# Where two headings read alike, the source gives them in different places.
# Legend:
# [1] = test system: ascitic P388 leukemia; assay: Antitumor activity against ascitic P388 leukemia in CDF-1 mice, treatment i.p. on day 1; format: in vivo
# Method: The primary screening […] was carried out in CDF-1 mice bearing ascitic P388 leukemia (10^6 cells/mouse). Both IIa and IIc were suspended in 10%. Tween 80 and injected intraperitoneally.
# Results of the primary screening "in vivo" carried out in CDF-1 mice bearing P388 ascitic leukemia and treated i.p. the day after tumor transplantation, are reported in Table 5.
# Antitumor activity against ascitic P388 leukekemia.
# (§1) Treatment i.p. on day 1.
# ^a median survival time; % over untreated controls
# ^b long term survivors (≥ 60 days)
# ^c evaluated on the basis of autoptic findings on dead mice
# (§2) ^d data of two experiments (range)
# ^e date of three experiments (range)
# Antitumor activity of Ib and Id against ascitic P388
# as §1
# [2] = test system: Gross leukemia; assay: Oral activity against i.v. transplanted Gross leukemia (i.v. comparators); format: in vivo, C3H/Me mice; conditions: Table 7, i.v. +1; for Toxic deaths: two experiments; for T/C %, median survival time: two experiments (range)
# Text: (§3) Results of studies performed in C3H/Me mice carrying i.v. transplanted Gross leukemia and treated i.v. the day after tumor transplantation, are reported in Table 6. […] The compounds Ib and Id were further investigated for oral activity on Gross leukemic transplanted i.v., in comparison with DNR, DX given i.v. and 4-dm DNR given oral route.
# Oral activity of Ib and Id against Gross leukemia
# ^a days after transplantation
# as §2
# [3] = test system: Gross leukemia; assay: Antitumor activity against i.v. transplanted Gross leukemia in C3H/Me mice, treatment i.v. on day 1; format: in vivo; conditions: Table 6
# Text: as §3
# Antitumor activity against i.v. Gross leukemia.
# Treatment i.v. on day 1.
# [4] = test system: HeLa cells; assay: Colony inhibition test against HeLa cells in vitro (cloning efficiency), treatment for 24 hrs; format: cell-based; conditions: for IC50: HeLa colony inhibition; for activity at 0.0062 µg/mL: 6.2 ng/ml; for activity at 0.0125 µg/mL: 12.5 ng/ml; for activity at 0.025 µg/mL: 25 ng/ml
# [5] = Table 2, 4.4 mg/kg i.p. day 1, two experiments
# [6] = Table 2, 6.6 mg/kg i.p. day 1, two (DNR) or three (DX) experiments
# [7] = Table 2, 10 mg/kg i.p. day 1, three experiments
# [8] = Table 5, 4.4 mg/kg i.p. day 1, DNR: two experiments
# [9] = Homo sapiens, HeLa, 24 h, read-out: No of colonies, % of untreated controls, Table 1, 24 hrs
# [10] = Homo sapiens, HeLa, 24 h, read-out: No of colonies, % of untreated controls, Table 3, 24 hrs
# [11] = Table 2, 30 mg/kg i.p. day 1, two experiments
# [12] = Homo sapiens, HeLa, Table 1, 24 hrs, read-out: No of colonies, % of untreated controls
compound,measurement,setting,value
"COc1cccc2c1C(=O)c1c(O)c3c(c(O)c1C2=O)C[C@@](O)(C(=O)CO)C[C@@H]3O[C@H]1C[C@H](N)[C@H](O)[C@H](C)O1 [DX, doxorubicin, reference compound]","T/C, median survival time; % over untreated controls","[1]; Table 2, 4.4 mg/kg i.p. day 1, data of two experiments (range)",220-227%
same,"LTS, long term survivors (≥ 60 days)",[1]; [5],2/18
same,Toxic deaths (autoptic findings on dead mice),[1]; [5],0/18
same,"T/C, median survival time; % over untreated controls","[1]; Table 2, 6.6 mg/kg i.p. day 1, range of two (DNR) or three (DX) experiments",227-305%
same,"LTS, long term survivors (≥ 60 days)",[1]; [6],2/26
same,Toxic deaths (autoptic findings on dead mice),[1]; [6],0/26
same,"LTS, long term survivors (≥ 60 days)",[1]; [7],7/26
same,Toxic deaths (autoptic findings on dead mice),[1]; [7],3/26
same,"LTS, long term survivors (≥ 60 days)",[1]; [8],1/10
same,Toxic deaths (autoptic findings on dead mice),[1]; [8],0/10
same,"T/C, median survival time; % over untreated controls","[1]; Table 5, 4.4 mg/kg i.p. day 1, DNR: two experiments (range)",220%
same,"LTS, long term survivors (≥ 60 days)","[1]; Table 5, 6.6 mg/kg i.p. day 1",0/10
same,"T/C, median survival time; % over untreated controls","[1]; Table 5, 6.6 mg/kg i.p. day 1",305%
same,Toxic deaths (autoptic findings on dead mice),"[1]; Table 5, 6.6 mg/kg i.p. day 1",0/10
same,"LTS, long term survivors (≥ 60 days)","[1]; Table 5, 10 mg/kg i.p. day 1",5/10
same,"T/C, median survival time; % over untreated controls","[1]; Table 5, 10 mg/kg i.p. day 1",> 610%
same,Toxic deaths (autoptic findings on dead mice),"[1]; Table 5, 10 mg/kg i.p. day 1",0/10
same,Toxic deaths,[2]; 10 mg/kg,1/20
same,"T/C %, median survival time",[2]; 10 mg/kg,171-171%
same,Toxic deaths,[2]; 13 mg/kg,1/20
same,"T/C %, median survival time",[2]; 13 mg/kg,200-200%
same,Toxic deaths,[2]; 16.9 mg/kg,3/13
same,"T/C %, median survival time",[2]; 16.9 mg/kg,200-207%
same,"T/C, median survival time; % over untreated controls",[3]; 10 mg/kg i.v. day 1,171%
same,Toxic deaths,[3]; 10 mg/kg i.v. day 1,0/10
same,"T/C, median survival time; % over untreated controls",[3]; 13 mg/kg i.v. day 1,200%
same,Toxic deaths,[3]; 13 mg/kg i.v. day 1,0/10
same,"T/C, median survival time; % over untreated controls",[3]; 16.9 mg/kg i.v. day 1,207%
same,Toxic deaths,[3]; 16.9 mg/kg i.v. day 1,3/10
same,IC50,"[4]; Homo sapiens, HeLa, 24 h, read-out: ID50, Table 1, 24 hrs",~0.01 µg/mL
same,IC50,"[4]; Homo sapiens, HeLa, 24 h, read-out: ID50, Table 3, 24 hrs",~0.0075 µg/mL
same,activity at 0.0062 µg/mL,[4]; [9],69%
same,activity at 0.0125 µg/mL,[4]; [9],40%
same,activity at 0.025 µg/mL,[4]; [9],24%
same,activity at 0.0062 µg/mL,[4]; [10],59%
same,activity at 0.0125 µg/mL,[4]; [10],28%
same,activity at 0.025 µg/mL,[4]; [10],0%
"COc1cccc2c1C(=O)c1c(O)c3c(c(O)c1C2=O)C[C@@](O)(C(=O)CO)C[C@@H]3O[C@H]1C=C[C@@H](O)[C@H](C)O1 [Compound IIc, 7-0-(2,3,6-trideoxy-α-L-erythro-hex-2-enopyranosyl)-adriamycinone]","LTS, long term survivors (≥ 60 days)","[1]; Table 2, 17.6 mg/kg i.p. day 1",0/8
same,"T/C, median survival time; % over untreated controls","[1]; Table 2, 17.6 mg/kg i.p. day 1",118%
same,Toxic deaths (autoptic findings on dead mice),"[1]; Table 2, 17.6 mg/kg i.p. day 1",0/8
same,"LTS, long term survivors (≥ 60 days)","[1]; Table 2, 23 mg/kg i.p. day 1",0/7
same,"T/C, median survival time; % over untreated controls","[1]; Table 2, 23 mg/kg i.p. day 1",127%
same,Toxic deaths (autoptic findings on dead mice),"[1]; Table 2, 23 mg/kg i.p. day 1",0/7
same,"LTS, long term survivors (≥ 60 days)",[1]; [11],0/17
same,Toxic deaths (autoptic findings on dead mice),[1]; [11],0/17
same,"T/C, median survival time; % over untreated controls","[1]; Table 2, 30 mg/kg i.p. day 1, two experiments (range)",125-136%
same,"LTS, long term survivors (≥ 60 days)","[1]; Table 2, 45 mg/kg i.p. day 1",0/10
same,"T/C, median survival time; % over untreated controls","[1]; Table 2, 45 mg/kg i.p. day 1",130%
same,Toxic deaths (autoptic findings on dead mice),"[1]; Table 2, 45 mg/kg i.p. day 1",0/10
same,"LTS, long term survivors (≥ 60 days)","[1]; Table 2, 67.5 mg/kg i.p. day 1",0/10
same,"T/C, median survival time; % over untreated controls","[1]; Table 2, 67.5 mg/kg i.p. day 1",140%
same,Toxic deaths (autoptic findings on dead mice),"[1]; Table 2, 67.5 mg/kg i.p. day 1",0/10
same,"LTS, long term survivors (≥ 60 days)","[1]; Table 2, 100 mg/kg i.p. day 1",0/7
same,"T/C, median survival time; % over untreated controls","[1]; Table 2, 100 mg/kg i.p. day 1",150%
same,Toxic deaths (autoptic findings on dead mice),"[1]; Table 2, 100 mg/kg i.p. day 1",0/7
same,toxicity and potency vs parent drugs DNR and DX,"[1]; ascitic P388, i.p.",less toxic and potent than the parent drugs DNR and DX
same,antitumor activity on P388 ascitic leukemia,"[1]; i.p. day 1, IIa: two doses tested incl. Mx TD","a certain antitumor activity, which is lower than that of DX"
same,times less cytotoxic than DX,"[4]; HeLa cells cloning efficiency, vs DX",about 5 times
same,activity at 0.0015 µg/mL,"[4]; Homo sapiens, HeLa, Table 1, 1.5 ng/ml, 24 hrs, read-out: No of colonies, % of untreated controls",86%
same,activity at 0.0062 µg/mL,[4]; [12],68%
same,activity at 0.025 µg/mL,[4]; [12],65%
same,activity at 0.1 µg/mL,"[4]; Homo sapiens, HeLa, Table 1, 100 ng/ml, 24 hrs, read-out: No of colonies, % of untreated controls",33%
same,activity at 0.4 µg/mL,"[4]; Homo sapiens, HeLa, Table 1, 400 ng/ml, 24 hrs, read-out: No of colonies, % of untreated controls",4%
same,IC50,"[4]; Homo sapiens, Table 1, 24 hrs, read-out: ID50 (the source's name)",~0.05 µg/mL
